How the values were obtained:
[1] = tested on: NIH/3T3 murine fibroblasts; assay: Clonogenic assay; type: cell-based; details: post-thaw; H5 and 0.4 M trehalose; from approximately 200±12 plated cells, one week
Protocol: For each condition, approximately 200 of the cells that had plated in 3 hours were replated in a […] for one week. To obtain 200 fibroblasts, cells were diluted to 2×10^5 cells/ml, and 1 μl of cell solution was introduced into a P60 petri dish (Falcon) containing 12 ml of DMEM with BCS. After one week, cells were fixed by a 0.5% glutaraldehyde wash and stained by Rhodamine B (Sigma) to enhance colony visibility. The number of colonies formed was determined by visual inspection.

[2] = tested on: NIH/3T3 murine fibroblasts; assay: Viability after vacuum drying and rehydration; type: cell-based; details: H5-porated; for protection of cells subjected to vacuum drying: 0.3 M sugar; for cells that successfully attached at three hours / survival rate: 0.3M sugar; for cells that successfully attached at three hours: vacuum dried 2 hours at ambient temperature, rehydrated; for survival rate: vacuum dried, adjusted for cell loss using control samples
Protocol: The efficacy of intracellular trehalose for vacuum dried fibroblasts was also tested. NIH/3T3 murine fibroblasts, prepared as in Example 1, were resuspended in phosphate buffered saline (PBS) solution and the cell density was counted. Cell density was then adjusted to 100,000 cells/ml by diluting with PBS and the sample was divided into three equal aliquots of 4.0 ml each. To each aliquot, 1.0 ml of 25 μg/ml H5 was added, reducing cell density to 8×10^4. The aliquots were incubated at room temperature for 15 minutes with occasional mixing.
In the first two aliquots, enough 1.0M stock solution of either trehalose or sucrose in PBS was added to obtain a final sugar concentration of 0.3M. In the third aliquot, an equivalent amount of PBS, without sugar, was added.
The three aliquots were dispersed in triplicate wells at 20 μl/well into four duplicate 12-well plates. Two of the twelve well plates were incubated at 37° C. and 10% CO2 as controls. The remaining two plates were vacuum dried for 2 hours at ambient temperature. After drying, the dried samples were rehydrated and the poration reversed with serum containing DMEM.
Viability assays were performed by counting attached cells at 3 hours, and cells that remained attached and divided during the next 24 hours. The experiments were repeated three times. […] Adjusting for cell loss due to handling, poration, etc. using the control samples, survival rates of 4% for the cells dried in trehalose and 3% for the cells dried in sucrose were obtained.

3T3 fibroblasts = assay: Volumetric response of porated cells in hypertonic sugar solution (sugar uptake); type: cell-based, murine
Protocol: Sugar may be added to the cell suspension in an HBS solution to the final desired concentration. Porated cells may be incubated in the sugar containing solution for 45 minutes. […] Of course the length of time required for sugar uptake may vary with the type of cell and the level of cell poration. Sugar uptake may be measured by both the uptake of radiolableled sugar into porated cells as well as by the volumetric response of porated cells placed in a hypertonic sugar solution, yielding statistically correlative results.
Following poration, 0-1.0 M trehalose (final concentration) in HBS solution (Sigma) was added to the cell suspension, as indicated in FIG. 4. To allow for trehalose uptake, porated cells were incubated in the solution for 45 min. […] [Russo et al., “Reversible permeabilization of plasma membranes with an engineered switchable pore,” Nature Biotech. 15, 278-282 (1997).] This uptake was measured by both the uptake of radiolableled sugar into porated cells as well as by the volumetric response of porated cells placed in a hypertonic sugar solution, yielding statistically correlative results. By repeating the volumetric experiments using hypertonic trehalose solutions and 25 μg/ml of porating agent, volumetric equilibration over 90% over a 45 min interval was achieved, indicating the equilibration of intracellular trehalose concentration with that of the suspending solution.

[3] = tested on: NIH/3T3 murine fibroblasts; details: mouse, pH 7.4
[4] = tested on: NIH/3T3 murine fibroblasts
in vitro = details: mouse, pH 7.4

OC[C@H]1O[C@H](O[C@H]2O[C@H](CO)[C@@H](O)[C@H](O)[C@H]2O)[C@H](O)[C@@H](O)[C@@H]1O [Trehalose, trehalose]
colonies formed [1]: 211.6±5.2 colonies | protection of cells subjected to vacuum drying [2]: effective in protecting cells subjected to vacuum drying | cells that successfully attached at three hours [2]: 48±3 cells | survival rate [2]: 4% | trehalose concentration at which fibroblasts reach minimum volume (3T3 fibroblasts; data not shown): about 0.4 M | volumetric equilibration (3T3 fibroblasts; hypertonic trehalose solutions, 25 μg/ml porating agent, 45 min interval): over 90% | viability and function after 1 hour [3]: 70-80% | additional loss of porated cells (18 hours growth) [4]: 10% | fibroblasts withstanding osmotic shock (18 hours growth) [4]: over 95% | higher than all control data to which trehalose was not added [4]: 70-80% | loss of population between 1 hour and 3h / 18 hours [4]: over 60% | loss of viability or function [4]: did not demonstrate a significant loss of viability | population loss [4]: loss of half of their populations | viability (in vitro): 10%

OC[C@H]1O[C@@](CO)(O[C@H]2O[C@H](CO)[C@@H](O)[C@H](O)[C@H]2O)[C@@H](O)[C@@H]1O [sucrose]
protection of cells subjected to vacuum drying [2]: effective in protecting cells subjected to vacuum drying | cells that successfully attached at three hours [2]: 36±3 cells | survival rate [2]: 3%

Reference: patent US6902931B1 (priority 1998, dated 2005)
